Laboratory results published in patent US6482609B1, “Isolated human EDG-4 receptor and polynucletide encoding said receptor” (priority 1997, dated 2002).

Columns and labels:
[1] = tested on: HL-60 cells; assay: IL-8 ELISA on HL-60 cells; type: cell-based, human; conditions: 1, 6 or 24 hr, S1P or LPA up to 3 μM, TNF-α 10 ng/ml
Protocol: Procedure for HL-60 Cells:
Cells: HL-60 (promyelocytic, human) suspension cells
Media: RPMI 1640 medium with 2 mM L-glutamine adjusted to contain 4.5 g/L glucose, 10 mM HEPES, and 1.0 mM sodium pyruvate+10% FBS
1) Cells were plated at a density of 0.25×10^6 cells/ml.
2) Cell pellcts were resuspended in 0.5% FBS media at a density of approximately 1×10^6 cells/ml.
1) Made up all required solutions in 0.5% FBS media (control).
2) 1.4 ml appropriate treatments were added to each well of a 6-well plate.
5) 100 μl cell suspension was added to each well.
7) After the specified time cell supematants were collected into 1.5 ml eppendorf tubes, spun down at 14000 rpm for 5 minutes and stored at −20° C.
D. Refer to Procedure #1 For HeLa Cells (D).

[2] = tested on: 293-EBNA cells; assay: IL-8 production in untransfected 293-EBNA cells; type: cell-based
[3] = target: T1, EDG-2 (Homo sapiens, UniProt Q92633); assay: SRE reporter in 293-EBNA cells, EDG-2; type: cell-based; conditions: 10 μM LPA
T1 construct: expressed in transfected cells; host or cells: 293-EBNA
T1 sequence (Q92633 whole entry): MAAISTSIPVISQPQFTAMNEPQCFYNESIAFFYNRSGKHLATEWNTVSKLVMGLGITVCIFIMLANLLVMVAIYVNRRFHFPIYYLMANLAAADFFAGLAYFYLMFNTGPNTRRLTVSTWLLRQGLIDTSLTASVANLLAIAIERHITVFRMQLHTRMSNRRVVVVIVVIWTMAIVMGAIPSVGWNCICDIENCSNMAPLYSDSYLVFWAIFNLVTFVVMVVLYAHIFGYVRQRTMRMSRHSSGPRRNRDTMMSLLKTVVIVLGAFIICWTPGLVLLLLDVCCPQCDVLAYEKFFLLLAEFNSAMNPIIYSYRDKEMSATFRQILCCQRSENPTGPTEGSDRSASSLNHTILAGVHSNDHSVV
Source text: (§1) LPA, like S1P, is abundant in serun, but not plasma. Moreover, LPA is produced as a consequence of phospholipase A2 with or without the contribution of phospholipase D (depending on the phospholipid substrate). […] To date we have identified three subtypes of edg receptors that respond to LPA as an agonist. These are EDG-2, EDG-6 and EDG-5 (referred to also as LPA1, LPA2 and LPA3, respectively (Chun, J, Contos, J J A and Munroe, D G. 1998. A growing family of receptor genes for lysophosphatidic acid (LPA) and other lyso-phospholipids. Cell Biochem Biophys (in press)). The EDG-5 receptor is set out in co-pending U.S. application Ser. No. 08/997,803 to MLUNROE et al., incorporated herein by reference and the amino acid sequence and cDNA sequence for the EDG-6 receptor is set out in FIGS. 21 and 22, respectively. To determine whether these receptors might mediate inflammatory responses, each was cotransfected separately with SRE, NF-κB or AP-1 reporter genes. […] This transcription factor, like NF-κB has been implicated in inflammatory and neoplastic signal transduction., though the gene targets of its action are largely distinct from those of NF-κB (Adcock IM. 1997. Transcription factors as activators of gene transcription: AP-1 and NF-κB. Monaldi Arch Chest Dis 52:178-186. Review). […]

[4] = tested on: EDG-6; assay: SRE reporter in 293-EBNA cells, EDG-6; type: cell-based, human; conditions: 10 μM LPA
Source text: as §1
Target sequence in this assay (Q9HBW0 1-330 limits assumed): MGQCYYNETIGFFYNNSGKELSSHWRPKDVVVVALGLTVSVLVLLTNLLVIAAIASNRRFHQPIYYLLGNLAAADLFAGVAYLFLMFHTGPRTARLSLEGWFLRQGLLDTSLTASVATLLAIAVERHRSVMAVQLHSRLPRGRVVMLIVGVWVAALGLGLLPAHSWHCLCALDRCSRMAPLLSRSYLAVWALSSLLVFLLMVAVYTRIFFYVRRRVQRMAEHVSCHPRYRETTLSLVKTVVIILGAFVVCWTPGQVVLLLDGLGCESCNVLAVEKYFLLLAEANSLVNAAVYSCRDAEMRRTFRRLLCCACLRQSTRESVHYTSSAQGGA

[5] = target: T2, EDG-5 (Homo sapiens, UniProt Q9UBY5); assay: AP-1 reporter in 293-EBNA cells, EDG-5; type: cell-based; conditions: 10 μM LPA
T2 construct: expressed in transfected cells; host or cells: 293-EBNA
T2 sequence (Q9UBY5 1-353): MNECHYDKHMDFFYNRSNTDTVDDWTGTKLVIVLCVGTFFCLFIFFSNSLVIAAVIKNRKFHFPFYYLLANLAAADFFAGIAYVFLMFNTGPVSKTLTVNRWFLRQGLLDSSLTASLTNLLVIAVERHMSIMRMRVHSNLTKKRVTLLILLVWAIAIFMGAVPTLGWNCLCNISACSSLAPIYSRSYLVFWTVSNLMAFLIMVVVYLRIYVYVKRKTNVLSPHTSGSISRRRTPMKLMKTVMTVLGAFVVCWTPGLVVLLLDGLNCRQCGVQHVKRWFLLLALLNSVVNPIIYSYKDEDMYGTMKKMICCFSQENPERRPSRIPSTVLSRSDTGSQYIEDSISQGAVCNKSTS
Source text: as §1

[6] = target: T1, EDG-2; assay: NF-κB reporter in 293-EBNA cells, EDG-2; type: cell-based; conditions: 10 μM LPA, overnight
Source text: as §1

[7] = tested on: 293-EBNA cells transfected with empty expression vector pcDNA3; assay: AP-1 reporter in 293-EBNA cells, empty vector pcDNA3; type: cell-based; conditions: 10 μM LPA
Source text: as §1

[8] = target: T1, EDG-2; assay: AP-1 reporter in 293-EBNA cells, EDG-2; type: cell-based; conditions: 10 μM LPA
Source text: as §1

[9] = tested on: 293-EBNA cells transfected with empty expression vector pcDNA3; assay: SRE luciferase reporter in 293-EBNA cells, empty vector pcDNA3; type: cell-based; conditions: 10 μM LPA
Protocol: NE-κB activates gene expression by binding to specific DNA sequences found in the promoters of genes regulated by this inflammation-related transcription factor. […] The SRE reporter was identical to the NF-κB reporter, except that the NF-κB binding sites were replaced with 2 SRE sites. The new reporter was called 2XSREtk-p4Luc-zeo.
The protocol described in Example 11 for Assay 1 was followed except for the following changes:
(§2) 2) SRE Cotransfection: 0.5 μg of 2XSREtk-p4Luc-zeo reporter DNA and 3.5 μg pcDNA3, EDG-1, EDG-3 (pC3-hE3HP2, different from the clone used in Assay 2 of Example 11) or the newly cloned human EDG-4 (pC3-hedg4#36); NF-κB Cotransfection: 2 μg 6XNFκBtk-p4Luc-zeo reporter DNA and 2.0 μg pcDNA3, EDG-1, EDG-3 (pC3-hE3HP2), or EDG-4 (pC3-hedg4#36). Expression plasmid and reporter plasmid DNA samples were combined and diluted in 750 μl of DMEM/F12 (serum free media) and 20 μl Plus Reagent (Lipofectamine Plus Kit, Life Technologies Cat. 10964-013), and incubated at room temperature for 15 min.
(§3) 1) Media was removed and cells treated with compounds diluted in DMEM/F12 media.
(§4) 2) The cells were treated for 6 hours.
Transfection was accomplished using the Lipofectamine Plus kit (Life Technologies, Cat. 10964-013), using the manufacturer's recommended conditions.
(§5) 293-EBNA cells were grown, lipofected in monolayer cultures, and pretreated as described above for Example 11, assay #1, except that NF-κB and AP-1 reporter-transfected cells were pretreated for 6 hr in medium containing 0.5% FBS, then treated overnight in the same medium with or without 10 μM LPA.

[10] = tested on: 293-EBNA cells transfected with empty expression vector pcDNA3; assay: NF-κB luciferase reporter in 293-EBNA cells, empty vector pcDNA3; type: cell-based; conditions: pcDNA3; 10 μM LPA; overnight
Protocol: Monolayer Transient Transfection Protocol for 293-EBNA
2) 6.6 μg NF-κB-tk-p4Luc reporter DNA and 6.6 μg of pC3-redg4 (expressing rat EDG-4), or pcDNA3 DNA was diluted in 500 μl OPTI-MEM (Gibco; Cat. 31985-062)
2) After 6 hrs, media was removed and cells treated with compounds diluted in 0.5% FBS media (140 μl added to each well).
3) Cells were treated for 24 hrs.
1) Luclite kit (Packard; Cat. 6016911) was used for luciferase assay. All reagents were brought to room temperature before use.
7) After incubation, plates were counted in a 12-detector Packard Top Count on a program without dark delay.
(§6) The above protocol for assay 1 was followed except for the following changes:
(§7) 2) 3 μg NFκB-tk-p4Luc reporter DNA and 3 μg pC3-hedg1, pC3-hedg3, pC3-redg4, pC3-hedg5 or pcDNA3 DNA was diluted in 240 μl OPTI-MEM (Gibco; Cat. 31985-062)
as §2, §3, §4, §5

[11] = tested on: EDG-6; assay: AP-1 reporter in 293-EBNA cells, EDG-6; type: cell-based, human; conditions: 10 μM LPA
Source text: as §1
Target sequence in this assay (Q9HBW0 1-340 limits assumed): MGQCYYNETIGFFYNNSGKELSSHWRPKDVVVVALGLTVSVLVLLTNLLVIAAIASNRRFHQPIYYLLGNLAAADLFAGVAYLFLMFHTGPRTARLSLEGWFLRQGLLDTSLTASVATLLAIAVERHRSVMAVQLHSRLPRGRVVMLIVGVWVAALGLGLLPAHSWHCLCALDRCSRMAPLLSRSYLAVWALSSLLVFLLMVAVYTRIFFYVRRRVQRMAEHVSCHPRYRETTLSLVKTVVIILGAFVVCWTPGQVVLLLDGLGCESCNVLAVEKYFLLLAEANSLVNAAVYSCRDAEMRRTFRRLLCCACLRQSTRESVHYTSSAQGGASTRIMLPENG

[12] = target: T2, EDG-5; assay: NF-κB luciferase reporter in 293-EBNA cells, EDG-5; type: cell-based; conditions: 10 μM LPA, overnight
Protocol: Transient Transfection Protocol for 293-EBNA
as §6, §7
1) 0.01×10^6 cells were plated per well of a 96-well Blackview plate coated with polyD-lysine. No cells were plated in the outside wells of the 96-well plate.
LPA, like S1P, is abundant in serun, but not plasma. Moreover, LPA is produced as a consequence of phospholipase A2 with or without the contribution of phospholipase D (depending on the phospholipid substrate). […] To date we have identified three subtypes of edg receptors that respond to LPA as an agonist. These are EDG-2, EDG-6 and EDG-5 (referred to also as LPA1, LPA2 and LPA3, respectively (Chun, J, Contos, J J A and Munroe, D G. 1998. A growing family of receptor genes for lysophosphatidic acid (LPA) and other lyso-phospholipids. Cell Biochem Biophys (in press)). The EDG-5 receptor is set out in co-pending U.S. application Ser. No. 08/997,803 to MLUNROE et al., incorporated herein by reference and the amino acid sequence and cDNA sequence for the EDG-6 receptor is set out in FIGS. 21 and 22, respectively. To determine whether these receptors might mediate inflammatory responses, each was cotransfected separately with SRE, NF-κB or AP-1 reporter genes. […]

[13] = tested on: EDG-6; assay: NF-κB reporter in 293-EBNA cells, EDG-6; type: cell-based, human; conditions: 10 μM LPA, overnight
Source text: as §1
Target sequence in this assay (Q9HBW0 1-340 limits assumed): as above

[14] = target: T2, EDG-5; assay: SRE reporter in 293-EBNA cells, EDG-5; type: cell-based; conditions: 10 μM LPA
Source text: as §1

[15] = tested on: Human Umbilical Vein Endothelial Cells (HUVEC); assay: IL-8 ELISA on primary cultured HUVEC treated with lysolipids; type: cell-based; conditions: 5 μM, 6 hr
Protocol: Plating, Pretreatment and Treatment of HUVEC
Procedures were followed as detailed above in “Procedure #1 for HeLa Cells” with the following exceptions:
Cells were plated at 20,000 cells/well into 24-well plates. The next day, cells were serum-starved overnight in EBM medium (Clonetics) with 0.5% FBS, and then treated in EBM without FBS for 6 hr with the following lysolipids:
Supematants were collected and IL-8 levels were deternined using ELISA as described previously.

Substance: lysophosphatidic acid [LPA]
- IL-8 release [1]: no such release
- IL-8 production [2]: no IL-8 production
- Induction of the SRE reporter [3]: greater than 2 fold
- SRE reporter induction [4]: strongly induced both reporters
- Induction of the AP-1 reporter [5]: greater than 2 fold
- Activation of the NF-κB reporter [6]: 3-4 fold
- Endogenous AP-1 reporter response vs untreated control cells [7]: about 1.5 fold
- Induction of the AP-1 reporter [8]: greater than 2 fold
- Endogenous SRE reporter response vs untreated control cells [9]: about 1.5 fold
- NF-κB reporter response in control cells [10]: no response to LPA
- AP-1 reporter induction [11]: strongly induced both reporters
- Activation of the NF-κB reporter [12]: 3-4 fold
- Activation of the NF-κB reporter [13]: 3-4 fold
- Induction of the SRE reporter [14]: greater than 2 fold
- IL-8 levels increase over untreated controls [15]: 3 fold
